Experimental data from patent US9676760B2, “Fused heterocyclic compounds as ion channel modulators” (Gilead Sciences, Inc., priority 2011, dated 2017).

Experiments:
[1] = target: T1, wild-type human cardiac sodium channel, hNav1.5 (Homo sapiens, UniProt Q14524); assay: Peak INa screening assay (tonic and use-dependent block); assay type: cell-based; details: compound at 1 μM
Procedure: The late sodium current (Late INa) and peak sodium current (Peak INa) assays are performed on an automated electrophysiology platform, QPatch 16× (Sophion Bioscience, Copenhagen, Denmark), which uses the whole cell patch clamp technique to measure currents through the cell membrane of up to 16 cells at a time. The assay uses an HEK293 (human embryonic kidney) cell line heterologously expressing the wild-type human cardiac sodium channel, hNav1.5, purchased from Millipore (Billerica, Mass.). No beta subunits were coexpressed with the Na channel alpha subunit. Cells are maintained with standard tissue culture procedures and stable channel expression is maintained with 400 μg/mL Geneticin in the culture medium. Cells isolated for use on QPatch are incubated for 5 minutes in Detachin 1×(Genlantis, San Diego, USA) at 37° C. to ensure that 80-90% of the cells are single and not part of a cell cluster. Experiments are carried out at 23-25° C.
For both the Late INa and Peak INa assays, series resistance compensation is set to 100% and series resistance and whole-cell compensation are performed automatically. Currents are digitized at 25 kHz and low-pass filtered at 12 kHz and 10 kHz for the late and peak INa assays, respectively. Currents through open sodium channels are automatically recorded and stored in the Sophion Bioscience Oracle database (Sophion Bioscience, Copenhagen, Denmark). Analysis is performed using QPatch Assay and database software and data are compiled in Excel.
Compound stocks are routinely made by the Gilead Sample Bank in plastic vials to 10 mM in dimethyl sulfoxide (DMSO). In some cases, when compounds are not soluble in DMSO, they are made in 100% ethanol. Stocks are sonicated as necessary. The extracellular solution for screening Late INa is composed of: 140 mM NaCl, 4 mM KCl, 1.8 mM CaCl2, 0.75 mM MgCl2 and 5 mM HEPES with pH adjusted to 7.4 using NaOH. The intracellular solution used to perfuse the inside of the cells for both the Late INa and Peak INa assays contains: 120 mM CsF, 20 mM CsCl, 5 mM EGTA, 5 mM HEPES and pH adjusted to 7.4 with CsOH. Compounds are diluted in extracellular solution to 1 μM in glass vials and then transferred to glass well plates before robotic addition to the cells. The 0 mM Na extracellular solution (0Na-ECF) used at the end of each experiment for the Late INa and Peak INa assays to measure baseline current contains: 140 mM N-methyl-D-glucamine; 4 mM KCl; 1.8 mM CaCl2; 0.75 mM MgCl2; 5 mM HEPES and pH was adjusted to 7.4 with HCl.
Compounds were also evaluated for their effect in several other assays, including their effect on Peak INa. […] Since the peak INa in the cells used herein can be very large, introducing artifacts in the recording, the concentration of Na^+ in the bath can be reduced to 20 mM and a nonpermeant cation added to compensate for the Na^+ that was removed to maintain the osmolarity and ionic strength of the solution (see solution details below).
A low stimulation frequency of 0.1 Hz was used to determine the effect of the test compound when the channel spent most of the time in the resting (closed) state and provides information about Tonic Block (TB). A higher stimulation frequency (3 Hz) was used to measure block of the channel when it spent more time in the activated and inactivated states and provided a measure of Use-Dependent Block (UDB). Use-dependent block refers to the accumulation of block with increased frequency of channel activation.

[2] = target: T1, wild-type human cardiac sodium channel, hNav1.5; assay: Late INa screening assay (QPatch whole cell patch clamp, HEK293); assay type: cell-based
How it was run: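 HEK293 stably expressing hNav1.5 without beta subunits, recorded at 23-25° C. Late current was induced by 10 μM tefluthrin. Cells were depolarized from −120 mV to −20 mV for 250 ms at 0.1 Hz. Compounds were tested at 1 μM in extracellular solution, with baseline taken in 0Na-ECF; output is percent block of late INa.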

[3] = tonic block of peak INa, 0.1 Hz, read-out: Peak TB 1 μM
[4] = use-dependent block of peak INa, 3 Hz, read-out: Peak UDB 1 μM
[5] = HEK293, percent block of late INa, compound at 1 μM, 10 μM Tefluthrin, read-out: Late INa 1 μM

T1 sequence (Q14524 whole entry): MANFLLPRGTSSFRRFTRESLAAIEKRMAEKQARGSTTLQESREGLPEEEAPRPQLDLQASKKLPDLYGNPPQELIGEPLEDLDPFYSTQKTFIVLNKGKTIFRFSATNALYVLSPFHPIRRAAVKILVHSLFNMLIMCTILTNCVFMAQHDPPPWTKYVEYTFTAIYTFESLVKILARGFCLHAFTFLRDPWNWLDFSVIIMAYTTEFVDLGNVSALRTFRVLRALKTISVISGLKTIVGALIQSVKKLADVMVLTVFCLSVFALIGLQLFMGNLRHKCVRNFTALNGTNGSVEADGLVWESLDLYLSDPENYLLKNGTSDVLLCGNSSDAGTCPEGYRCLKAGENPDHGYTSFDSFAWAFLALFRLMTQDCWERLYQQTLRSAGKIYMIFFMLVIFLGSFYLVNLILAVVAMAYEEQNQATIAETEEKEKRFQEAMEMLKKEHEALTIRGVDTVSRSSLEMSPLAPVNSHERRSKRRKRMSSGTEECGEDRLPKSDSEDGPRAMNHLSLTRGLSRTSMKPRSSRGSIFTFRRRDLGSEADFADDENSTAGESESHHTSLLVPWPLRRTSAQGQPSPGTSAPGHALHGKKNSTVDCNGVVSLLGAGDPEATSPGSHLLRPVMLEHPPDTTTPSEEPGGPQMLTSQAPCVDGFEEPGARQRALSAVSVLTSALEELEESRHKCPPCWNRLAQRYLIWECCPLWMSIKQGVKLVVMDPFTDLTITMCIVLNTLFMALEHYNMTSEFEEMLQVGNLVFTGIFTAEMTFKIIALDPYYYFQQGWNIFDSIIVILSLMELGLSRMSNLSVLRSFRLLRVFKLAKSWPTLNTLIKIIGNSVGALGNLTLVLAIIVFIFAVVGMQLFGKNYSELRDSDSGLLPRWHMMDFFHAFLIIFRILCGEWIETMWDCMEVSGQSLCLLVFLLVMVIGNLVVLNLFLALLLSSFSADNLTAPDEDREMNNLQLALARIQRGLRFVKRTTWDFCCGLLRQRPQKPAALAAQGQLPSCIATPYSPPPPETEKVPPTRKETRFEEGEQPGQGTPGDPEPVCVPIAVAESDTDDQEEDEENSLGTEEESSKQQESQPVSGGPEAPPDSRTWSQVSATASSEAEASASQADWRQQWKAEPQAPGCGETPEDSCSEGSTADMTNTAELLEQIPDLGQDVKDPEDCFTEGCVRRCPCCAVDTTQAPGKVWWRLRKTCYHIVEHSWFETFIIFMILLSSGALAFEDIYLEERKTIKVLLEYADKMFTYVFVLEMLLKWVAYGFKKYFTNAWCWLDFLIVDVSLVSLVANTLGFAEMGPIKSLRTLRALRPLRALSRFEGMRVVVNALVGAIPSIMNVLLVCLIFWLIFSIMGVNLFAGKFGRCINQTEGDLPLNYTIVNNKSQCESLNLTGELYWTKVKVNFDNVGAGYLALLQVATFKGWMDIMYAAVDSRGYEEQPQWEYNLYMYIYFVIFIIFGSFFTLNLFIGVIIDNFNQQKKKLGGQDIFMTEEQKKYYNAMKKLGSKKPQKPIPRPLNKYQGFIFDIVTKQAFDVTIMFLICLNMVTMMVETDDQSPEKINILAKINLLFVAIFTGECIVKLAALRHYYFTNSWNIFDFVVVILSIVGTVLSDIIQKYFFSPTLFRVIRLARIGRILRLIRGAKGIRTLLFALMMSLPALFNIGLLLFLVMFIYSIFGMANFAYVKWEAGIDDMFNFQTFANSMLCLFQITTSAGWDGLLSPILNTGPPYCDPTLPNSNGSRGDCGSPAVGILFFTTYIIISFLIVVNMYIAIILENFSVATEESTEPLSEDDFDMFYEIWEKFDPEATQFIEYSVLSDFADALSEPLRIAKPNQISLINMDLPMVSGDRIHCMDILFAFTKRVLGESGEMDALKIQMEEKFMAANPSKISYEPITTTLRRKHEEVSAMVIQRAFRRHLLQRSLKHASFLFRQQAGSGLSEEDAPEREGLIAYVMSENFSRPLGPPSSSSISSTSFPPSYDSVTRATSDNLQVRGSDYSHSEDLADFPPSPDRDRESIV

SMILES | inhibition at 1 µM [1, 3] [%] | inhibition at 1 µM [1, 4] [%] | inhibition at 1 µM ([2]; HEK293, % Inhibition at 1 uM, read-out: Late INa*) [%] | inhibition at 1 µM [2, 5] [%]
O=C1c2cc(-c3ccc(OC(F)(F)F)cc3)ccc2OCCN1Cn1cc(Cl)cn1 [II-156, 4-((4-chloro-1H-pyrazol-1-yl)methyl)-7-(4-(trifluoromethoxy)phenyl)-3,4-dihydrobenzo[f][1,4]oxazepin-5(2H)-one] | 23 | 13 | 48 | 48
O=C1c2cc(-c3ccc(C(F)F)cc3)ccc2OCCN1Cc1ccccn1 [II-157, 7-(4-(difluoromethyl)phenyl)-4-(pyridin-2-ylmethyl)-3,4-dihydrobenzo[f][1,4]oxazepin-5(2H)-one] | 13 | 16 |  | 43
O=C1c2cc(-c3ccc(Cl)c(F)c3)ccc2OCCN1Cc1ccccn1 [II-158, 7-(4-chloro-3-fluorophenyl)-4-(pyridin-2-ylmethyl)-3,4-dihydrobenzo[f][1,4]oxazepin-5(2H)-one] | 34 | 26 |  | 58
O=C1c2cc(-c3ccc(OC(F)(F)F)cc3)cc(F)c2OCCN1Cc1ccccc1 [II-165, 4-benzyl-9-fluoro-7-(4-(trifluoromethoxy)phenyl)-3,4-dihydrobenzo[f][1,4]oxazepin-5(2H)-one] | 15 | 30 |  | 56
O=C1c2cc(-c3ccc(C(F)(F)F)cc3)cc(F)c2OCCN1Cc1ccccc1 [II-166, 4-benzyl-9-fluoro-7-(4-(trifluoromethyl)phenyl)-3,4-dihydrobenzo[f][1,4]oxazepin-5(2H)-one] | 20 | 34 |  | 53
O=C1c2cc(-c3ccc(OC(F)(F)F)cc3)c(F)cc2OCCN1Cc1ccccc1 [II-167, 4-benzyl-8-fluoro-7-(4-(trifluoromethoxy)phenyl)-3,4-dihydrobenzo[f][1,4]oxazepin-5(2H)-one] | 20 | 25 |  | 56
O=C1c2cc(-c3ccc(C(F)(F)F)cc3)c(F)cc2OCCN1Cc1ccccc1 [II-168, 4-benzyl-8-fluoro-7-(4-(trifluoromethyl)phenyl)-3,4-dihydrobenzo[f][1,4]oxazepin-5(2H)-one] | 36 | 47 |  | 44
O=C1c2cc(-c3ccc(Cl)c(F)c3)ccc2OCCN1Cc1ncccc1F [II-169, 7-(4-chloro-3-fluorophenyl)-4-((3-fluoropyridin-2-yl)methyl)-3,4-dihydrobenzo[f][1,4]oxazepin-5(2H)-one] | 23 | 23 |  | 65
O=C1c2cc(-c3ccc(C(F)(F)F)cc3F)ccc2OCCN1Cc1ncccc1F [II-170, 7-(2-fluoro-4-(trifluoromethyl)phenyl)-4-((3-fluoropyridin-2-yl)methyl)-3,4-dihydrobenzo[f][1,4]oxazepin-5(2H)-one] | 36 | 31 |  | 66
Cc1cncc(CN2CCOc3ccc(-c4ccc(OC(F)(F)F)cc4)cc3C2=O)n1 [II-175, 4-((6-methylpyrazin-2-yl)methyl)-7-(4-(trifluoromethoxy)phenyl)-3,4-dihydrobenzo[f][1,4]oxazepin-5(2H)-one] | 21 | 16 |  | 53
O=C1c2cc(-c3ccc(C(F)(F)F)cc3)ccc2OCCN1Cc1ncccc1F [II-176, 4-((3-fluoropyridin-2-yl)methyl)-7-(4-(trifluoromethyl)phenyl)-3,4-dihydrobenzo[f][1,4]oxazepin-5(2H)-one] | 45 | 44 |  | 68
Cn1ccnc1CN1CCOc2ccc(-c3ccc(OC(F)(F)F)cc3)cc2C1=O [II-186, 4-((1-methyl-1H-imidazol-2-yl)methyl)-7-(4-(trifluoromethoxy)phenyl)-3,4-dihydrobenzo[f][1,4]oxazepin-5(2H)-one] | 20 | 30 |  | 55
O=C1c2cc(-c3ccc(OC(F)(F)F)cc3)ccc2OCCN1Cc1nccn1Cc1ccccc1 [II-187] | 9 | 21 |  | 62
O=C1c2cc(-c3ccc(OC(F)(F)F)cc3)ccc2OCCN1Cc1cn2ccccc2n1 [II-189, 4-(imidazo[1,2-a]pyridin-2-ylmethyl)-7-(4-(trifluoromethoxy)phenyl)-3,4-dihydrobenzo[f][1,4]oxazepin-5(2H)-one] | 23 | 28 |  | 53
Cn1cc(C(=O)N2CCOc3ccc(-c4ccc(OC(F)(F)F)cc4)cc3C2)cn1 [III-12, (1-methyl-1H-pyrazol-4-yl)(7-(4-(trifluoromethoxy)phenyl)-2,3-dihydrobenzo[f][1,4]oxazepin-4(5H)-yl)methanone] | 10 | 17 |  | 39
O=C(c1cc[nH]n1)N1CCOc2ccc(-c3ccc(OC(F)(F)F)cc3)cc2C1 [III-15, (1H-pyrazol-3-yl)(7-(4-(trifluoromethoxy)phenyl)-2,3-dihydrobenzo[f][1,4]oxazepin-4(5H)-yl)methanone] | 19 | 18 |  | 50
O=C(Cc1ccccn1)N1CCOc2ccc(-c3ccc(C(F)(F)F)cc3)cc2C1 [III-29, 2-(pyridin-2-yl)-1-(7-(4-(trifluoromethyl)phenyl)-2,3-dihydrobenzo[f][1,4]oxazepin-4(5H)-yl)ethanone] | 11 | 14 |  | 48
O=C1c2cc(-c3ccc(C(F)(F)F)s3)ccc2OCCN1Cc1ccccn1 [VI-31, 4-(pyridin-2-ylmethyl)-7-(5-(trifluoromethyl)thiophen-2-yl)-3,4-dihydrobenzo[f][1,4]oxazepin-5(2H)-one] | 50 | 42 |  | 61
O=C1c2cc(-c3ccc(C4CC4)s3)ccc2OCCN1Cc1ccccn1 [VI-32, 7-(5-cyclopropylthiophen-2-yl)-4-(pyridin-2-ylmethyl)-3,4-dihydrobenzo[f][1,4]oxazepin-5(2H)-one] | 28 | 26 |  | 66
O=C1c2nc(-c3ccc(OC(F)(F)F)cc3)ccc2OCCN1Cc1ccccc1 [XII-2, 4-benzyl-7-(4-(trifluoromethoxy)phenyl)-3,4-dihydropyrido[2,3-f][1,4]oxazepin-5(2H)-one] | 45 | 64 |  | 57
O=C1c2nc(-c3ccc(C(F)(F)F)cc3)ccc2OCCN1Cc1ccccc1 [XII-3, 4-benzyl-7-(4-(trifluoromethyl)phenyl)-3,4-dihydropyrido[2,3-f][1,4]oxazepin-5(2H)-one] | 51 | 79 |  | 44
COc1cccnc1CN1CCOc2cnc(-c3ccc(OC(F)(F)F)cc3)cc2C1=O [XII-10, 4-((3-methoxypyridin-2-yl)methyl)-7-(4-(trifluoromethoxy)phenyl)-3,4-dihydropyrido[4,3-f][1,4]oxazepin-5(2H)-one] | 13 | 20 |  | 45
